Experimental data from paper PMC11676667, “Pharmacokinetics of Oral Cannabinoid Δ8-Tetrahydrocannabivarin and Its Main Metabolites in Healthy Participants” (Pharmaceuticals, 2024).

Experiment: Plasma pharmacokinetics after single oral dose of Δ8-THCV in MCT oil (LC-MS/MS, non-compartmental analysis)
Type: in vivo, human
Set-up: Clast (last quantifiable concentration): unit not given here
Details: for Clast (last quantifiable concentration) / tlast (time to last quantifiable concentration) / concentration at 0.5 h / concentration at 1 h / concentration at 2 h / concentration at 4 h / concentration at 6 h / concentration at 8 h: plasma; for plasma concentration: Predose; for concentration at 0.5 h / concentration at 1 h / concentration at 2 h / concentration at 4 h / concentration at 6 h / concentration at 8 h: human, oral
Method in brief: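 Healthy participants received single oral Δ8-THCV in MCT oil (50 mg/mL; 12.5-200 mg, or placebo) after a high-fat, high-calorie breakfast, with ≥1-week washout. Plasma (K2EDTA) sampled predose and 0.5-8 h post-dose, assayed by validated LC-MS/MS including metabolites; PK by non-compartmental analysis, sub-LLOQ values set to 0.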

[1] = 12.5 mg single oral Δ8-THCV in MCT oil, Mean (±SD)
[2] = 12.5 mg single oral Δ8-THCV in MCT oil, Median (Range)
[3] = 25 mg single oral Δ8-THCV in MCT oil, Mean (±SD)
[4] = 25 mg single oral Δ8-THCV in MCT oil, Median (Range)
[5] = 50 mg single oral Δ8-THCV in MCT oil, Mean (±SD)
[6] = 50 mg single oral Δ8-THCV in MCT oil, Median (Range)
[7] = 100 mg single oral Δ8-THCV in MCT oil, Mean (±SD)
[8] = 100 mg single oral Δ8-THCV in MCT oil, Median (Range)
[9] = 200 mg single oral Δ8-THCV in MCT oil, Mean (±SD)
[10] = 200 mg single oral Δ8-THCV in MCT oil, Median (Range)
[11] = 12.5 mg, 12.5 mg Δ8-THCV dose, Mean (SD, %CV)
[12] = 12.5 mg, 12.5 mg Δ8-THCV dose, Median (IQ Range)
[13] = 25 mg, 25 mg Δ8-THCV dose, Mean (SD, %CV)
[14] = 25 mg, 25 mg Δ8-THCV dose, Median (IQ Range)
[15] = 50 mg, 50 mg Δ8-THCV dose, Mean (SD, %CV)
[16] = 50 mg, 50 mg Δ8-THCV dose, Median (IQ Range)

SMILES: CCCc1cc(O)c2c(c1)OC(C)(C)[C@@H]1CCC(C(=O)O)=C[C@@H]21 [Δ9-THCV-COOH, 11-nor-9-carboxy-Δ9-THCV]
- Clast (last quantifiable concentration) [1]: 1.9 (±0.8)
- tlast (time to last quantifiable concentration) [1]: 6.8 (±1.7)
- Clast (last quantifiable concentration) [2]: 1.7 (1.1–3.3)
- tlast (time to last quantifiable concentration) [2]: 8 (4–8)
- Clast (last quantifiable concentration) [3]: 2.6 (±1)
- tlast (time to last quantifiable concentration) [3]: 7.6 (±1.2)
- Clast (last quantifiable concentration) [4]: 2.4 (1.3–4.4)
- tlast (time to last quantifiable concentration) [4]: 8 (4–8)
- Clast (last quantifiable concentration) [5]: 5.4 (±1.9)
- tlast (time to last quantifiable concentration) [5]: 8 (±0)
- Clast (last quantifiable concentration) [6]: 5.2 (2.4–8.5)
- tlast (time to last quantifiable concentration) [6]: 8 (8–8)
- Clast (last quantifiable concentration) [7]: 10.8 (±3.7)
- tlast (time to last quantifiable concentration) [7]: 8 (±0)
- Clast (last quantifiable concentration) [8]: 10.5 (6.2–16.1)
- tlast (time to last quantifiable concentration) [8]: 8 (8–8)
- Clast (last quantifiable concentration) [9]: 29.2 (±16.1)
- tlast (time to last quantifiable concentration) [9]: 8 (±0)
- Clast (last quantifiable concentration) [10]: 26.3 (10.9–63.8)
- tlast (time to last quantifiable concentration) [10]: 8 (8–8)
- plasma concentration (12.5 mg Δ8-THCV dose, Mean (SD, %CV)): 0 (±0, --) ng/mL
- plasma concentration (12.5 mg Δ8-THCV dose, Median (IQ Range)): 0 (0–0) ng/mL
- plasma concentration (25 mg Δ8-THCV dose, Mean (SD, %CV)): 0 (±0, --) ng/mL
- plasma concentration (25 mg Δ8-THCV dose, Median (IQ Range)): 0 (0–0) ng/mL
- plasma concentration (50 mg Δ8-THCV dose, Mean (SD, %CV)): 0 (±0, --) ng/mL
- plasma concentration (50 mg Δ8-THCV dose, Median (IQ Range)): 0 (0–0) ng/mL
- plasma concentration (100 mg Δ8-THCV dose, Mean (SD, %CV)): 0 (±0, --) ng/mL
- plasma concentration (100 mg Δ8-THCV dose, Median (IQ Range)): 0 (0–0) ng/mL
- plasma concentration (200 mg Δ8-THCV dose, Mean (SD, %CV)): 0 (±0, --) ng/mL
- plasma concentration (200 mg Δ8-THCV dose, Median (IQ Range)): 0 (0–0) ng/mL
- concentration at 0.5 h [11]: 0 ng/mL
- concentration at 0.5 h [12]: 0 ng/mL
- concentration at 1 h [11]: 0.1 ng/mL
- concentration at 1 h [12]: 0 ng/mL
- concentration at 2 h [11]: 0.5 ng/mL
- concentration at 2 h [12]: 0 ng/mL
- concentration at 4 h [11]: 1.9 ng/mL
- concentration at 4 h [12]: 1.8 ng/mL
- concentration at 6 h [11]: 1.5 ng/mL
- concentration at 6 h [12]: 1.3 ng/mL
- concentration at 8 h [11]: 1.2 ng/mL
- concentration at 8 h [12]: 1.4 ng/mL
- concentration at 0.5 h [13]: 0 ng/mL
- concentration at 0.5 h [14]: 0 ng/mL
- concentration at 1 h [13]: 0.7 ng/mL
- concentration at 1 h [14]: 0 ng/mL
- concentration at 2 h [13]: 1.6 ng/mL
- concentration at 2 h [14]: 1.7 ng/mL
- concentration at 4 h [13]: 3.7 ng/mL
- concentration at 4 h [14]: 3.6 ng/mL
- concentration at 6 h [13]: 3 ng/mL
- concentration at 6 h [14]: 2.4 ng/mL
- concentration at 8 h [13]: 2.3 ng/mL
- concentration at 8 h [14]: 2.3 ng/mL
- concentration at 0.5 h [15]: 0 ng/mL
- concentration at 0.5 h [16]: 0 ng/mL
- concentration at 1 h [15]: 0.6 ng/mL
- concentration at 1 h [16]: 0 ng/mL
- concentration at 2 h [15]: 2.3 ng/mL
- concentration at 2 h [16]: 0 ng/mL
- concentration at 4 h [15]: 5.4 ng/mL
- concentration at 4 h [16]: 5 ng/mL
- concentration at 6 h [15]: 6.7 ng/mL
- concentration at 6 h [16]: 5.9 ng/mL
- concentration at 8 h [15]: 5.4 ng/mL
- concentration at 8 h [16]: 5.2 ng/mL
